Common to all, as to assay type: in vivo
The subject of series [1] is Echinochloa oryzacola Vasing. In words: Test Example 1: herbicidal activity, application before weed generation in submerged conditions (symbol A). The method, boiled down:
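Weeds are sown into submerged alluvial soil alongside transplanted 2.5-leaf rice, and the compound, as an emulsion diluted to a set rate, is applied onto the water before emergence. Rating on the 0–5 herbicidal-ratio scale follows 3 weeks of greenhouse growth at 25–30 °C.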

The test system of a further series is transplanted rice plant. Kind of series: Test Example 1: effect on crop, application before weed generation in submerged conditions (symbol a). An outline of the steps: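 Alluvial soil pots flooded to 4 cm water, sown with Echinochloa oryzacola, Scirpus juncoides and Monochoria vaginalis, then transplanted with 2.5 leaf stage rice seedlings; pre-emergence application. Greenhouse 25° C. to 30° C.; scored 0–5 by herbicidal ratio 3 weeks after application.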

Series [2] deals with directly sowed rice plant. Kind of series: Test Example 3: effect on crop by foliage application, Wagner pot (symbol b). An outline of the steps: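 Alluvial soil in a 1/10000-are Wagner pot was flooded to a water depth of 0.1–0.5 cm. Echinochloa crus-galli var. crus-galli, Leptochloa chinensis, Cyperus difformis and rice were sown into it and grown in a greenhouse at 25–30 °C.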

Series [3] relates to Echinochloa crus-galli var. crus-galli. Kind of series: Test Example 4: herbicidal effect by soil treatment (symbol H). An outline of the steps:
(§1)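 Seeds were sown in sterilized diluvial soil, covered with about 1.5 cm of soil, and the soil surface was sprayed with a water-diluted emulsion of the compound at a predetermined rate. Plants grew in a greenhouse at 25° C. to 30° C.; effects were scored visually 3 weeks after application.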

For another series, the system named is Apera spica-venti. Kind of series: Test Example 4: herbicidal effect by soil treatment (symbol L). The method, boiled down:
as §1

For series [4], the system named is Abutilon theophrasti. In words: Test Example 4: herbicidal effect by soil treatment (symbol M). The method, boiled down:
as §1

The test system of the next series is Galium spurium. In words: Test Example 4: herbicidal effect by soil treatment (symbol Q). The source says:
Herbicidal Effect Test by Soil Treatment
Sterilized diluvial soil was placed in a plastic box having a length of 21 cm, a width of 13 cm, and a depth of 7 cm. Each of the seeds of Digitaria ciliaris, Setaria viridis, Echinochloa crus-galli var. crus-galli, Avena fatua, Alopecurus myosuroides, Lolium multiflorum Lam., Apera spica-venti, Abutilon theophrasti, Amaranthus retroflexus, Chenopodium album, Stellaria media, Galium spurium, Veronica persica, corn, soybean, rice, wheat, beet, and rapeseed was sowed in a spot-like manner and was covered with the soil of a thickness of about 1.5 cm. Subsequently, the emulsion agent of the compound present invention prepared in accordance with Formulation Example 2 was diluted with water so as to be a predetermined herbicide amount and the diluted emulsion agent was uniformly applied to the surface of the soil with a small-size spray. The plastic box was placed in a greenhouse of 25° C. to 30° C. to grow plant. 3 weeks later from the herbicide application, the effect to each plant was investigated in accordance with the criteria of Test Example 1.

The subject of series [5] is soybean. Kind of series: Test Example 4: effect on crop by soil treatment (symbol d). The method, boiled down:
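Seeds were sown in spots on sterilized diluvial soil in a plastic box and covered with about 1.5 cm of soil. Plants were then grown in a greenhouse at 25° C. to 30° C.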

In a further series the test system is Digitaria ciliaris. In words: Test Example 5: herbicidal effect by foliage application, plastic box (symbol F). The note with it: 3 weeks after application; for F: Digitaria ciliaris, herbicidal effect (criteria 0-5): 320 g/ha. An outline of the steps: (§2)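 Seeds were sown in sterilized diluvial soil, covered with about 1.5 cm of soil and grown 14 days in a greenhouse at 25° C. to 30° C. An emulsifiable formulation diluted in water to a set rate was sprayed over foliage, and injury was scored 3 weeks later.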

The subject of the next series is Avena fatua. Kind of series: Test Example 5: herbicidal effect by foliage application, plastic box (symbol I). The note with it: 3 weeks after application; for I: Avena fatua, herbicidal effect (criteria 0-5): 320 g/ha. The method, boiled down: as §2
Series [6] relates to Abutilon theophrasti. In words: Test Example 5: herbicidal effect by foliage application, plastic box (symbol M). The note with it: 3 weeks after application; for M: Abutilon theophrasti, herbicidal effect (criteria 0-5): 320 g/ha. An outline of the steps: as §2
Another series has as its system Veronica persica. Kind of series: Test Example 5: herbicidal effect by foliage application, plastic box (symbol R). The note with it: 3 weeks after application; for R: Veronica persica, herbicidal effect (criteria 0-5): 320 g/ha. An outline of the steps:
as §2

The subject of a further series is corn. In words: Test Example 5: effect on crop by foliage application, plastic box (symbol c). The settings on record: 3 weeks after application; for c: corn, effect on crop (criteria 0-5): 320 g/ha. An outline of the steps:
(§3)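 Box culture: sterile diluvial soil, seeds spot-sown, ~1.5 cm cover, raised under glass at 25–30° C.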

The subject of series [7] is soybean. In words: Test Example 5: effect on crop by foliage application, plastic box (symbol d). The note with it: 3 weeks after application; for d: soybean, effect on crop (criteria 0-5): 320 g/ha. An outline of the steps: as §3
The mark [8] stands for this setting: application herbicide amount 320 g/ha.
Setting [9] is: application herbicide amount 102 g/ha.

On to `CON=C(C)CC1CC(OC(=O)c2cc(C)on2)=C(c2c(C)cc(C)cc2C)C1=O` (centres unmarked) [1-100], for which the “Herbicidal effect grade, A: Echinochloa oryzacola Vasing.” value in series [1] (setting [8]) is reported as 5 (Herbicidal ratio of 90% or more (almost completely withered)). For the same compound, in the series on transplanted rice plant (setting [8]), the “Effect grade on crop, a: transplanted rice plant” value was 5 (Herbicidal ratio of 90% or more (almost completely withered)). Further, the “effect on crop b (directly sowed rice plant), grade 0-5” value (“effect on crop b” below) in series [2] (setting [8]) was 5 (Herbicidal ratio of 90% or more (almost completely withered)). The “H: Echinochloa crus-galli var. crus-galli, herbicidal effect grade” value in series [3] (320 g/ha) is 5 (Herbicidal ratio of 90% or more (almost completely withered)). Further, the “L: Apera spica-venti, herbicidal effect grade” value (from here on “L: Apera spica-venti”) in the series with Apera spica-venti (320 g/ha) is 5 (Herbicidal ratio of 90% or more (almost completely withered)). Also, the “M: Abutilon theophrasti, herbicidal effect grade” value in the series with Abutilon theophrasti [4] (320 g/ha) is 4 (Herbicidal ratio of 70% or higher and lower than 90%). In addition, the “Q: Galium spurium, herbicidal effect grade” value (“Q: Galium spurium” for short) with Galium spurium (320 g/ha) is recorded as 0 (Herbicidal ratio of 5% or lower (almost no effect)). For the same compound, the “d: soybean, effect grade on crop” value with soybean [5] (320 g/ha) is 2 (Herbicidal ratio of 20% or higher and lower than 40%). In addition, in the series on Digitaria ciliaris, the “F: Digitaria ciliaris, herbicidal effect (criteria 0-5)” value (from here on “F: Digitaria ciliaris … (criteria 0-5)”) is listed as 5 (Herbicidal ratio of 90% or more (almost completely withered)). Further, the “I: Avena fatua, herbicidal effect (criteria 0-5)” value (“I: Avena fatua … (criteria 0-5)” for short) in the series on Avena fatua is reported as 5 (Herbicidal ratio of 90% or more (almost completely withered)). For the same compound, the “M: Abutilon theophrasti, herbicidal effect (criteria 0-5)” value in the series with Abutilon theophrasti [6] was 4 (Herbicidal ratio of 70% or higher and lower than 90%). Moreover, the “R: Veronica persica, herbicidal effect (criteria 0-5)” value (from here on “R: Veronica persica … (criteria 0-5)”) in the series on Veronica persica was 3 (Herbicidal ratio of 40% or higher and lower than 70%). For the same compound, in the series with corn, the “c: corn, effect on crop (criteria 0-5)” value is 5 (Herbicidal ratio of 90% or more (almost completely withered)). For the same compound, the “d: soybean, effect on crop (criteria 0-5)” value (shortened to “d: soybean … (criteria 0-5)”) with soybean [7] was 3 (Herbicidal ratio of 40% or higher and lower than 70%).
In the case of `CON=C(C)CC1CC(OC(=O)N2CCOCC2)=C(c2c(C)cc(C)cc2C)C1=O` (centres unmarked) [1-104], the “Herbicidal effect grade, A: Echinochloa oryzacola Vasing.” value in series [1] (setting [8]) was 5 (Herbicidal ratio of 90% or more (almost completely withered)). Also, the “Effect grade on crop, a: transplanted rice plant” value in the series with transplanted rice plant (setting [8]) was 3 (Herbicidal ratio of 40% or higher and lower than 70%). Further, in [2] (setting [8]), the “effect on crop b” value is 5 (Herbicidal ratio of 90% or more (almost completely withered)). Moreover, the “H: Echinochloa crus-galli var. crus-galli, herbicidal effect grade” value in series [3] (320 g/ha) was 5 (Herbicidal ratio of 90% or more (almost completely withered)). Moreover, the “L: Apera spica-venti” value in the series with Apera spica-venti (320 g/ha) is 5 (Herbicidal ratio of 90% or more (almost completely withered)). Also, the “M: Abutilon theophrasti, herbicidal effect grade” value with Abutilon theophrasti [4] (320 g/ha) is 4 (Herbicidal ratio of 70% or higher and lower than 90%). The “Q: Galium spurium” value in the series with Galium spurium (320 g/ha) is given as 0 (Herbicidal ratio of 5% or lower (almost no effect)). The “d: soybean, effect grade on crop” value in the series on soybean [5] (320 g/ha) is given as 0 (Herbicidal ratio of 5% or lower (almost no effect)). In addition, the “F: Digitaria ciliaris … (criteria 0-5)” value in the series with Digitaria ciliaris is listed as 5 (Herbicidal ratio of 90% or more (almost completely withered)). For the same compound, the “I: Avena fatua … (criteria 0-5)” value with Avena fatua is recorded as 5 (Herbicidal ratio of 90% or more (almost completely withered)). Further, the “M: Abutilon theophrasti, herbicidal effect (criteria 0-5)” value with Abutilon theophrasti [6] was 3 (Herbicidal ratio of 40% or higher and lower than 70%). In addition, the “R: Veronica persica … (criteria 0-5)” value in the series with Veronica persica is 1 (Herbicidal ratio of 5% or higher and lower than 20%). In the series with corn, the “c: corn, effect on crop (criteria 0-5)” value was 4 (Herbicidal ratio of 70% or higher and lower than 90%). Also, the “d: soybean … (criteria 0-5)” value in the series on soybean [7] was 1 (Herbicidal ratio of 5% or higher and lower than 20%).
Consider `CON=C(C)CC1CC(OC(=O)N(C)C)=C(c2c(C)cc(C)cc2C)C1=O` (centres unmarked) [1-108], for which the “Herbicidal effect grade, A: Echinochloa oryzacola Vasing.” value in [1] (setting [8]) was 5 (Herbicidal ratio of 90% or more (almost completely withered)). For the same compound, the “Effect grade on crop, a: transplanted rice plant” value in the series with transplanted rice plant (setting [8]) is reported as 5 (Herbicidal ratio of 90% or more (almost completely withered)). Besides, the “effect on crop b” value in series [2] (setting [8]) is on record as 5 (Herbicidal ratio of 90% or more (almost completely withered)). Besides, in series [3] (320 g/ha), the “H: Echinochloa crus-galli var. crus-galli, herbicidal effect grade” value is 5 (Herbicidal ratio of 90% or more (almost completely withered)). In addition, the “L: Apera spica-venti” value in the series on Apera spica-venti (320 g/ha) is given as 5 (Herbicidal ratio of 90% or more (almost completely withered)). In the series on Abutilon theophrasti [4] (320 g/ha), the “M: Abutilon theophrasti, herbicidal effect grade” value was 4 (Herbicidal ratio of 70% or higher and lower than 90%). The “Q: Galium spurium” value in the series on Galium spurium (320 g/ha) was 0 (Herbicidal ratio of 5% or lower (almost no effect)). The “d: soybean, effect grade on crop” value in the series on soybean [5] (320 g/ha) is 0 (Herbicidal ratio of 5% or lower (almost no effect)). The “F: Digitaria ciliaris … (criteria 0-5)” value in the series on Digitaria ciliaris is on record as 5 (Herbicidal ratio of 90% or more (almost completely withered)). In addition, the “I: Avena fatua … (criteria 0-5)” value with Avena fatua is 5 (Herbicidal ratio of 90% or more (almost completely withered)). For the same compound, the “M: Abutilon theophrasti, herbicidal effect (criteria 0-5)” value in the series on Abutilon theophrasti [6] was 4 (Herbicidal ratio of 70% or higher and lower than 90%). Further, the “R: Veronica persica … (criteria 0-5)” value in the series with Veronica persica was 1 (Herbicidal ratio of 5% or higher and lower than 20%). In the series on corn, the “c: corn, effect on crop (criteria 0-5)” value is on record as 5 (Herbicidal ratio of 90% or more (almost completely withered)). For the same compound, the “d: soybean … (criteria 0-5)” value in the series on soybean [7] was 3 (Herbicidal ratio of 40% or higher and lower than 70%).
Consider `CC(=O)CC1CC(O)=C(c2c(C)cc(C)cc2C)C1=O` (centres unmarked) [2-001, 3-hydroxy-2-mesityl-5-(2-oxopropyl)cyclopent-2-enone], for which the “Herbicidal effect grade, A: Echinochloa oryzacola Vasing.” value in [1] (setting [9]) was 4 (Herbicidal ratio of 70% or higher and lower than 90%). For the same compound, in the series on transplanted rice plant (setting [9]), the “Effect grade on crop, a: transplanted rice plant” value was 4 (Herbicidal ratio of 70% or higher and lower than 90%). Moreover, the “effect on crop b” value in series [2] (setting [9]) is listed as 5 (Herbicidal ratio of 90% or more (almost completely withered)). Moreover, the “H: Echinochloa crus-galli var. crus-galli, herbicidal effect grade” value in [3] (102 g/ha) was 5 (Herbicidal ratio of 90% or more (almost completely withered)). Also, in the series with Apera spica-venti (102 g/ha), the “L: Apera spica-venti” value is 2 (Herbicidal ratio of 20% or higher and lower than 40%). Moreover, the “M: Abutilon theophrasti, herbicidal effect grade” value in the series with Abutilon theophrasti [4] (102 g/ha) was 3 (Herbicidal ratio of 40% or higher and lower than 70%); with Abutilon theophrasti [6] (102 g/ha), 1 (Herbicidal ratio of 5% or higher and lower than 20%). For the same compound, the “Q: Galium spurium” value in the series with Galium spurium (102 g/ha) was 0 (Herbicidal ratio of 5% or lower (almost no effect)). Besides, the “d: soybean, effect grade on crop” value in the series with soybean [5] (102 g/ha) is given as 0 (Herbicidal ratio of 5% or lower (almost no effect)). The “F: Digitaria ciliaris, herbicidal effect grade” value in the series on Digitaria ciliaris (102 g/ha) is recorded as 5 (Herbicidal ratio of 90% or more (almost completely withered)). The “I: Avena fatua, herbicidal effect grade” value in the series on Avena fatua (102 g/ha) was 4 (Herbicidal ratio of 70% or higher and lower than 90%). Further, the “R: Veronica persica, herbicidal effect grade” value with Veronica persica (102 g/ha) was 2 (Herbicidal ratio of 20% or higher and lower than 40%). Also, the “c: corn, effect on crop grade” value in the series with corn (102 g/ha) was 3 (Herbicidal ratio of 40% or higher and lower than 70%). Also, the “d: soybean, effect on crop grade” value in the series with soybean [7] (102 g/ha) is listed as 0 (Herbicidal ratio of 5% or lower (almost no effect)).

The values above are taken from US11000033B2, “Ketone or oxime compound, and herbicide” (NISSAN CHEMICAL CORPORATION, priority 2014, dated 2021).
